# Laboratory results reported in patent US11130741B2 (Bioimics AB, priority 2016, dated 2021).
# Where two headings read alike, the source gives them in different places.
# How the values were obtained:
# E. coli JW5503 = experiment: MIC, E. coli JW5503; format: cell-based; settings: Escherichia coli, JW5503, read-out: MIC E. coli JW5503
# H. influenzae ATCC 49247 = experiment: MIC, H. influenzae ATCC 49247; format: cell-based; settings: Haemophilus influenzae, ATCC49247
# H. pylori ATCC 43504 = experiment: MIC, H. pylori ATCC 43504; format: cell-based; settings: Helicobacter pylori, ATCC43504
# S. aureus ATCC 29213 = experiment: MIC, S. aureus ATCC 29213 + 50% HS; format: cell-based; settings: Staphylococcus aureus, ATCC29213
# [1] = system: E. coli RNase P RNA, M1 RNA; experiment: Inhibition of bacterial RNase P activity, IC50 determination (cleavage of pATSerUG by M1 RNA); format: biochemical; settings: NI = No inhibition
# E. faecium ATCC 700221 = experiment: MIC, E. faecium ATCC 700221; format: cell-based; settings: Enterococcus faecium, ATCC700221; read-out: MIC E. faecium ATCC 700221
# K. pneumoniae ATCC 43816 = experiment: MIC, K. pneumoniae ATCC 43816; format: cell-based; settings: Klebsiella pneumoniae, ATCC43816
# [2] = system: P. aeruginosa NTUH-974 (MDR); experiment: MIC, P. aeruginosa NTUH-974 (MDR); format: cell-based
# [3] = system: Staphylococcus aureus subsp. aureus (ATCC29213); experiment: MIC, broth microdilution (CLSI), Staphylococcus aureus subsp. aureus ATCC29213; format: cell-based
# M. fortuitum ATCC 110 = experiment: MIC, M. fortuitum ATCC 110; format: cell-based; settings: Mycolicibacterium fortuitum, ATCC110
# [4] = system: S. aureus USA300 MRSA BAA 1717; experiment: MIC, S. aureus USA300 MRSA BAA 1717; format: cell-based; settings: Staphylococcus aureus
# M. phlei ATCC 11758 = experiment: MIC, M. phlei ATCC 11758; format: cell-based; settings: Mycolicibacterium phlei, ATCC11758
# [5] = system: Escherichia coli (ATCC25922); experiment: MIC, broth microdilution (CLSI), Escherichia coli ATCC25922
# [6] = system: Enterococcus faecalis (ATCC29212); experiment: MIC, broth microdilution (CLSI), Enterococcus faecalis ATCC29212; format: cell-based; settings: read-out: MIC E. faecalis ATCC 29212
# S. pneumoniae ATCC 49619 = experiment: MIC, S. pneumoniae ATCC 49619; format: cell-based; settings: Streptococcus pneumoniae, ATCC49619
# N. gonorrhoeae 612501 = experiment: MIC, N. gonorrhoeae 612501; format: cell-based; settings: Neisseria gonorrhoeae
# A. baumannii ATCC 17978 = experiment: MIC, A. baumannii ATCC 17978; format: cell-based; settings: Acinetobacter baumannii, ATCC17978
# [7] = system: Pseudomonas aeruginosa (ATCC27853); experiment: microbe, parasite or virus in culture; format: cell-based; settings: read-out: MIC P. aeruginosa ATCC 27853
# [8] = system: S. aureus MRSA ATCC 33591; experiment: MIC, S. aureus MRSA ATCC 33591; format: cell-based; settings: Staphylococcus aureus; read-out: MIC S. aureus MRSA ATCC 33591
# [9] = system: Staphylococcus aureus (ATCC25923); experiment: MIC, broth microdilution (CLSI), Staphylococcus aureus ATCC25923; settings: ATCC25923, read-out: S. aureus ("Clinical") MIC
# [10] = Pseudomonas aeruginosa; read-out: MIC P. aeruginosa NTUH-974 (MDR)
# [11] = ATCC29213, Table 15, read-out: S. aureus ("wound") (MIC)
# [12] = ATCC29213, Table 16, read-out: MIC S. aureus ATCC 29213
# [13] = ATCC25922, read-out: E. coli MIC, Table 15, NI = No inhibition
# [14] = ATCC25922, read-out: MIC E. coli ATCC 25922, Table 16
# [15] = Pseudomonas aeruginosa, read-out: MIC P. aeruginosa NTUH-974 (MDR)
Structure (SMILES),MIC (E. coli JW5503),MIC (H. influenzae ATCC 49247),MIC (S. aureus ATCC 29213),IC50 [1],MIC (E. faecium ATCC 700221),MIC (K. pneumoniae ATCC 43816),"MIC [2, 10]","MIC [3, 11]","MIC [3, 12]","MIC [5, 13]","MIC [5, 14]",MIC [6],MIC (S. pneumoniae ATCC 49619),MIC (N. gonorrhoeae 612501),MIC (A. baumannii ATCC 17978),MIC [7],MIC [8],"MIC [2, 15]",MIC [9],also measured
"CC1(C)CCCN(c2ccc3c(c2)Sc2cc(C(F)(F)F)cc(NC4CCN(CCN)CC4)c2N3)C1.Cl.Cl [compound 305, N-(1-(2-aminoethyl)piperidin-4-yl)-7-(3,3-dimethyl-piperidin-1-yl)-3-(trifluoromethyl)-10H-phenothiazin-1-amine hydrochloride]",4 µg/mL,1 µg/mL,32 µg/mL,2.9 µM,1 µg/mL,4 µg/mL,16 µg/mL,2 µg/mL,1 µg/mL,4 µg/mL,4 µg/mL,1 µg/mL,2 µg/mL,1 µg/mL,4 µg/mL,16 µg/mL,1 µg/mL,,,MIC (H. pylori ATCC 43504): 16 µg/mL; MIC (M. fortuitum ATCC 110): 4 µg/mL; MIC [4]: 1 µg/mL; MIC (M. phlei ATCC 11758): 2 µg/mL
"CN(C)CCCN1c2ccccc2Sc2cc(-c3cc4ccccc4[nH]3)ccc21 [compound 111, 3-(3-(1H-Indol-2-yl)-10H-phenothiazin-10-yl)-N,N-dimethylpropan-1-amine]",4 µg/mL,16 µg/mL,128 µg/mL,~20 µM,2 µg/mL,> 128 µg/mL,,3 µg/mL,2 µg/mL,> 100 µg/mL,64 µg/mL,4 µg/mL,8 µg/mL,2 µg/mL,64 µg/mL,> 128 µg/mL,4 µg/mL,> 128 µg/mL,3 µg/mL,
"NCCN1CCC(Nc2cc(C(F)(F)F)cc3c2Nc2ccccc2S3)CC1 [compound 140, N-(1-(2-Aminoethyl)piperidin-4-yl)-3-(trifluoromethyl)-10H-phenothiazin-1-amine]",8 µg/mL,8 µg/mL,128 µg/mL,8 µM,4 µg/mL,8 µg/mL,32 µg/mL,8 µg/mL,4 µg/mL,7 µg/mL,32 µg/mL,4 µg/mL,32 µg/mL,2 µg/mL,8 µg/mL,64 µg/mL,4 µg/mL,,3 µg/mL,
"NC1CCCC(CNc2cc(C(F)(F)F)cc3c2Nc2ccccc2S3)C1 (stereo not drawn) [compound 133, N-((3-Aminocyclohexyl)methyl)-3-(trifluoromethyl)-10H-phenothiazin-1-amine]",8 µg/mL,16 µg/mL,128 µg/mL,19 µM,4 µg/mL,32 µg/mL,,81 µg/mL,4 µg/mL,13 µg/mL,32 µg/mL,8 µg/mL,32 µg/mL,2 µg/mL,16 µg/mL,128 µg/mL,4 µg/mL,128 µg/mL,3 µg/mL,
"O=C(/C=C/c1ccc(F)cc1)Nc1cc(C(F)(F)F)cc2c1Nc1ccccc1S2 [compound 92, E-3-(4-fluorophenyl)-N-(3-(trifluoromethyl)-10H-phenothiazin-1-yl)acrylamide]",> 128 µg/mL,> 128 µg/mL,128 µg/mL,> 100 µM,0.5 µg/mL,> 128 µg/mL,,1 µg/mL,0.5 µg/mL,> 100 µg/mL,,2 µg/mL,8 µg/mL,0.25 µg/mL,> 128 µg/mL,> 128 µg/mL,2 µg/mL,> 128 µg/mL,1 µg/mL,"MIC ([5]; ATCC25922, read-out: MIC E. coli ATCC 25922): > 128 µg/mL"
